The results in this text go back to US20200239530A1, “COMPOUNDS AND METHODS OF MODULATING PROTEIN DEGRADATION” (Vividion Therapeutics, Inc., priority 2017, published 2020).

What all share (experiment): Cysteine liganding, probe competition
Format in all cases: binding

For experiment [1], the target named is T1, ANKRD54 Ankyrin repeat domain-containing protein 54 (Homo sapiens, UniProt Q6NXT1).
T1 construct: 200 μL of lysate containing 5 mg/ml proteome was treated with 2 μL of 100× compound stock; endogenous in cells
The procedure, abridged: (§1)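 Lysates from probe-sonicated cells in PBS (5 mg/ml proteome) were exposed to compound for 1 hr at 25° C, then labelled with desthiobiotin iodoacetamide probe (10 mM stock) for 1 hr at 25° C. Probe-tagged peptides were streptavidin-enriched after trypsin digestion.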

The target in experiment [2] is T2, CEP44 Centrosomal protein of 44 kDa (Homo sapiens, UniProt Q9C0F1).
T2 construct: 200 μL of lysate containing 5 mg/ml proteome was treated with 2 μL of 100× compound stock; endogenous in cells
T2 sequence (Q9C0F1 1-390): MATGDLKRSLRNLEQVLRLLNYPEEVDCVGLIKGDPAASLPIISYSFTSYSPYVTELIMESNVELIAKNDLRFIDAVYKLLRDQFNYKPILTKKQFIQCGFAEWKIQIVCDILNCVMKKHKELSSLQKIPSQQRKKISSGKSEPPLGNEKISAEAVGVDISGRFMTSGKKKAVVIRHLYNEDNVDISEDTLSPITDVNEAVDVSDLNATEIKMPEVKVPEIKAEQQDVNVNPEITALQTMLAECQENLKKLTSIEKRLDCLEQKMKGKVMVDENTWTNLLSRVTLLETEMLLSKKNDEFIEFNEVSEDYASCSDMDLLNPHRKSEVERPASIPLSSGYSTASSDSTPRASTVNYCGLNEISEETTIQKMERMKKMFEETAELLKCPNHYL
The procedure, abridged:
as §1

Experiment [3] addresses T3, CKMT1B Creatine kinase U-type, mitochondrial (Homo sapiens, UniProt P12532).
T3 construct: 200 μL of lysate containing 5 mg/ml proteome was treated with 2 μL of 100× compound stock; endogenous in cells
As to conditions: for Liganded: CKMT1B Res# 316, uniprot P12532. The gist of the method: as §1

For experiment [4], the target named is T4, DECR2 Peroxisomal 2,4-dienoyl-CoA reductase (Homo sapiens, UniProt Q9NUI1).
T4 construct: 200 μL of lysate containing 5 mg/ml proteome was treated with 2 μL of 100× compound stock; endogenous in cells
T4 sequence (Q9NUI1 1-292): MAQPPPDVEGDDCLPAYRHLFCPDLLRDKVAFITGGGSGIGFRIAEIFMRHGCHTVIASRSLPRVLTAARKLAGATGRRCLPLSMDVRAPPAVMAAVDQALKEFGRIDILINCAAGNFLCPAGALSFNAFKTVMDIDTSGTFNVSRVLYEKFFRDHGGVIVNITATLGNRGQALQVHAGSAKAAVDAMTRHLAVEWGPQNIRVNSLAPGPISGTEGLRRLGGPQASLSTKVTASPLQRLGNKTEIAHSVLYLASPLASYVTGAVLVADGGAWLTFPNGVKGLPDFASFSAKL
The conditions noted are these: for Liganded: DECR2 Res# 120, uniprot Q9NUI1. The procedure, abridged:
as §1

The target of experiment [5] is T5, RNF214 RING finger protein 214 (Homo sapiens, UniProt Q8ND24).
T5 construct: Cells were resuspended in cold PBS on ice and sonicated with a probe sonicator to achieve lysis; endogenous in cells
The conditions noted are these: for Liganded: RNF214 Res# 655, uniprot Q8ND24. The procedure, abridged:
as §1

Experiment [6] deals with T6, RPS6KA1 Ribosomal protein S6 kinase alpha-1 (Homo sapiens, UniProt Q15418).
T6 construct: Cells were resuspended in cold PBS on ice and sonicated with a probe sonicator to achieve lysis; endogenous in cells
The gist of the method:
as §1

Experiment [7] concerns the target T7, RPS6KA3 Ribosomal protein S6 kinase alpha-3 (Homo sapiens, UniProt P51812).
T7 construct: Cells were resuspended in cold PBS on ice and sonicated with a probe sonicator to achieve lysis; endogenous in cells
The gist of the method: as §1

T1 sequence (Q6NXT1 whole entry, the tested form may be a part): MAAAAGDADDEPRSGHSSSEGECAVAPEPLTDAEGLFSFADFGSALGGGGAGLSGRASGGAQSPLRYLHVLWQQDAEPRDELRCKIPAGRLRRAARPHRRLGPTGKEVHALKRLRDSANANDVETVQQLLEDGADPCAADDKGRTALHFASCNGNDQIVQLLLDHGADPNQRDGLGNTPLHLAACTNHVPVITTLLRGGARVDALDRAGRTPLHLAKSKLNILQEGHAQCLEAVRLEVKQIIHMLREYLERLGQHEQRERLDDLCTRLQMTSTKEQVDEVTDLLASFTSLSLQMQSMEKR
T7 sequence (P51812 whole entry): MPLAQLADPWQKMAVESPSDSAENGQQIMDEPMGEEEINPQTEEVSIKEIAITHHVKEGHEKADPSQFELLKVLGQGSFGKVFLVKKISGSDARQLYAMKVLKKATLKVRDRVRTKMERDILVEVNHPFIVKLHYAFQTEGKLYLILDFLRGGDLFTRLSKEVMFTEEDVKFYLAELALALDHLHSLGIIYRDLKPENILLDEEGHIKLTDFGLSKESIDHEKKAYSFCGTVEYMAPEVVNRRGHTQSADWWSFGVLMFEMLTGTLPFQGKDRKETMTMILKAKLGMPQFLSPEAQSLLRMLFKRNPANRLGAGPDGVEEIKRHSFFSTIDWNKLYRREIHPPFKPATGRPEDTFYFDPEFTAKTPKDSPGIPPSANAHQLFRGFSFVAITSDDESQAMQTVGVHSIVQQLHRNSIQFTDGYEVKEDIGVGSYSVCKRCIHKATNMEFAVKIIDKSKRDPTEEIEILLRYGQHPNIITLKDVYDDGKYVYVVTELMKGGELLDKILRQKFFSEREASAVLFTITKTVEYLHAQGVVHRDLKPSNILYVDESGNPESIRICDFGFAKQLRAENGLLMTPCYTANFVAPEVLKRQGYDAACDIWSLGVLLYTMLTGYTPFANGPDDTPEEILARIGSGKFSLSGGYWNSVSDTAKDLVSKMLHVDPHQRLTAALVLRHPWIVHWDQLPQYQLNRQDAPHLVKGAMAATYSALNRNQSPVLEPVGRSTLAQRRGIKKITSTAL
T6 sequence (Q15418 whole entry): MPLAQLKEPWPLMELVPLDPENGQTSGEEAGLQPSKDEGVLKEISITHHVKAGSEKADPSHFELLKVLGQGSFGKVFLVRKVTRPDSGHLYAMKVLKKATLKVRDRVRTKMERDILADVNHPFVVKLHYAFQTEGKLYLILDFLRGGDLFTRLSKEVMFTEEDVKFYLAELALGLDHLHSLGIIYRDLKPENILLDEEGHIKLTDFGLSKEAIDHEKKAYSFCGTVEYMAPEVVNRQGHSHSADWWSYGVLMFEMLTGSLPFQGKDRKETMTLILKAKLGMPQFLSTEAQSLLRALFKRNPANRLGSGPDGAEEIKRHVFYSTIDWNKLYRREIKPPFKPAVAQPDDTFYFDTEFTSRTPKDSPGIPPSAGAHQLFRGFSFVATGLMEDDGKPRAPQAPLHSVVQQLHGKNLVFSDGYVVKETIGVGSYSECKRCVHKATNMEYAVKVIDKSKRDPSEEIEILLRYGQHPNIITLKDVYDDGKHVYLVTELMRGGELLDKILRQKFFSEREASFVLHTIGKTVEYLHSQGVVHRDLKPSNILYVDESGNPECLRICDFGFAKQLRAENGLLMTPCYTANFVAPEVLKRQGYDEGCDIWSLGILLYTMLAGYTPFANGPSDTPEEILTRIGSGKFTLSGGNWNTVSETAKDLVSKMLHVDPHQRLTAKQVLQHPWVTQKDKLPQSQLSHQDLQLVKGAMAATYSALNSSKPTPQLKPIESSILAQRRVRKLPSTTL
T5 sequence (Q8ND24 whole entry): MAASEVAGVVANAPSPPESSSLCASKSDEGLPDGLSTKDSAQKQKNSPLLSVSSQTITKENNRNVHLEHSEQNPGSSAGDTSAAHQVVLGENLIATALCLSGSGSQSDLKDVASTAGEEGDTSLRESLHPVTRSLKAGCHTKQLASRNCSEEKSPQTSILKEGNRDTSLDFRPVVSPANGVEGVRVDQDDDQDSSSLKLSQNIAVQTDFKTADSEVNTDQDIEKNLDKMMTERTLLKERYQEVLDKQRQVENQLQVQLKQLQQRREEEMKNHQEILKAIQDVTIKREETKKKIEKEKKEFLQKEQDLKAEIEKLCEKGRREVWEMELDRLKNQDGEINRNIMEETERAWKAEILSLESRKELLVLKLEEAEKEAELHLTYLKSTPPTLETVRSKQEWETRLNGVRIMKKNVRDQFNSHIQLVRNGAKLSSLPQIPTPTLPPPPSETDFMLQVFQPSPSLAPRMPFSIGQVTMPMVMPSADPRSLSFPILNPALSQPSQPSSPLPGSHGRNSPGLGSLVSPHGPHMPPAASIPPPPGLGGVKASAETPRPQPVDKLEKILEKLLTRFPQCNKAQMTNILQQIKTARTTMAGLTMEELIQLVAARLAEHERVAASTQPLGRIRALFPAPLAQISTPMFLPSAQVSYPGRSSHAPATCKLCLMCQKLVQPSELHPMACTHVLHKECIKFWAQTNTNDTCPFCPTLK

With `O=C(CCl)Nc1cc(C(F)(F)F)cc(C(F)(F)F)c1` [KBO3], the “100 Max” value in experiment [1] (uniprot Q6NXT1) came to 7.02; in experiment [2] (uniprot Q9C0F1, in % (unit assumed)), 14.85; in experiment [3] (uniprot P12532) it was 42.35; in experiment [4] (uniprot Q9NUI1) it was 66.9; in experiment [5] (uniprot Q8ND24, unit assumed) it was 35.5%; in experiment [6] (uniprot Q15418), 1.03. Besides, the “100 Max” value in experiment [7] (uniprot P51812) came to 1.03. Also, the 100 ave is −0.72 in experiment [1] (uniprot Q6NXT1); 14.85 in experiment [2] (uniprot Q9C0F1); 29.59 in experiment [3] (uniprot P12532); 66.9 in experiment [4] (uniprot Q9NUI1); 24.8 in experiment [5] (uniprot Q8ND24); 1.03 in experiment [6] (uniprot Q15418). The same compound gave a 100 ave in experiment [7] (uniprot P51812) of −4.767. Also, the “500 Max” value in experiment [1] (uniprot Q6NXT1) stood at 45.29; in experiment [2] (uniprot Q9C0F1, unit assumed) it was 69.9%; in experiment [3] (uniprot P12532, in % (unit assumed)) it was 86.19; in experiment [4] (uniprot Q9NUI1), 85; in experiment [5] (uniprot Q8ND24), 96.4; in experiment [6] (uniprot Q15418, in % (unit assumed)) it was 30.61. Further, the “500 Max” value in experiment [7] (uniprot P51812, in % (unit assumed)) is reported as 30.61. For the same compound, the 500 ave in experiment [1] (uniprot Q6NXT1) is 44.21; in experiment [2] (uniprot Q9C0F1), 69.9; in experiment [3] (uniprot P12532), 81.71; in experiment [4] (uniprot Q9NUI1), 85; in experiment [5] (uniprot Q8ND24), 65.9; in experiment [6] (uniprot Q15418), 30.61. In experiment [7] (uniprot P51812), this compound displayed a 500 ave of 30.61. Besides, the Liganded result in experiment [3], in experiment [4] and in experiment [5] was “YES” throughout.
Turning to `COc1ccc2c(c1)CCCN2C(=O)CCl` [KB02], the Liganded entry in experiment [1] (ANKRD54 Res# 230, uniprot Q6NXT1) is “YES”; in experiment [2] (CEP44 Res# 28, uniprot Q9C0F1), “YES”; in experiment [3], “YES”; in experiment [4], “YES”; in experiment [5] it was “YES”; in experiment [6] (RPS6KA1 Res# 223, uniprot Q15418), “YES”. Moreover, in experiment [7] (RPS6KA3 Res# 229, uniprot P51812), the Liganded result is on record as “YES”.
